From the supplement of paper PMC10307832

Key:
Assay in all cases: relative viability (nuclei count vs DMSO), 5 days (fraction); higher = more cells survive
[1] = test system: COR-L 105
Procedure, shortened: (§1)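 Values are medians from duplicate plates. Each reflects relative viability, defined as the nuclei count of treated wells over that of vehicle wells. Lung cancer cell lines in 1536-well plates were pin-tool dosed one day after seeding with one drug alone or with a fixed anchor-drug dose plus five library-drug doses (not always all listed) in √10 steps, then fixed, stained and imaged at 4× after 5 days.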

[2] = test system: NCI-H1915
Procedure, shortened: as §1

[3] = test system: EKVX
Procedure, shortened: as §1

[4] = test system: NCI-H1944
Procedure, shortened: as §1

[5] = test system: LXF-289
Procedure, shortened: as §1

[6] = test system: PC-3 [JPC-3]
Procedure, shortened: as §1

[7] = test system: NCI-H1793
Procedure, shortened: as §1

[8] = test system: CAL-12T
Procedure, shortened: as §1

[9] = test system: SK-MES-1
Procedure, shortened: as §1

[10] = test system: NCI-H1437
Procedure, shortened: as §1

[11] = test system: NCI-H2085
Procedure, shortened: as §1

[12] = test system: NCI-H1651
Procedure, shortened: as §1

[13] = test system: LC-2-ad
Procedure, shortened: as §1

[14] = test system: NCI-H1755
Procedure, shortened: as §1

[15] = test system: SK-LU-1
Procedure, shortened: as §1

[16] = test system: LK-2
Procedure, shortened: as §1

[17] = test system: EMC-BAC-2
Procedure, shortened: as §1

[18] = test system: NCI-H2228
Procedure, shortened: as §1

[19] = test system: H3255
Procedure, shortened: as §1

[20] = test system: NCI-H2087
Procedure, shortened: as §1

[21] = test system: NCI-H2347
Procedure, shortened: as §1

[22] = test system: NCI-H1395
Procedure, shortened: as §1

[23] = test system: NCI-H661
Procedure, shortened: as §1

For `O=C(O)CCCCC(CCSCc1ccccc1)SCc1ccccc1` (centres undefined) [CPI-613] + CS(=O)(=O)N1CCN(Cc2cc3nc(-c4cccc5[nH]ncc45)nc(N4CCOCC4)c3s2)CC1 [Pictilisib] (partner 1 µM), the relative viability ([1]; first compound 5 µM) was 0.399, the relative viability ([1]; first compound 15.81 µM) was 0.377 and the relative viability ([1]; first compound 50 µM) was 0.38. For the same compound, the relative viability ([1]; first compound 158.11 µM) was 0.328, the relative viability ([1]; first compound 500 µM) was 0.288 and the relative viability ([2]; first compound 5 µM) was 0.988. For the same compound, the relative viability ([2]; first compound 15.81 µM) was 0.719, the relative viability ([2]; first compound 50 µM) was 0.908 and the relative viability ([2]; first compound 158.11 µM) was 0.927. For the same compound, the relative viability ([2]; first compound 500 µM) was 0.503, the relative viability ([3]; first compound 5 µM) was 0.43 and the relative viability ([3]; first compound 15.81 µM) was 0.451. It also gave a relative viability ([3]; first compound 50 µM) of 0.509, a relative viability ([3]; first compound 158.11 µM) of 0.415 and a relative viability ([3]; first compound 500 µM) of 0.406. It also gave a relative viability ([4]; first compound 5 µM) of 0.336, a relative viability ([4]; first compound 15.81 µM) of 0.371 and a relative viability ([4]; first compound 50 µM) of 0.351. The relative viability ([4]; first compound 158.11 µM) was 0.347, the relative viability ([4]; first compound 500 µM) was 0.332 and the relative viability ([5]; first compound 5 µM) was 0.716. The relative viability ([5]; first compound 15.81 µM) was 0.752, the relative viability ([5]; first compound 50 µM) was 0.728 and the relative viability ([5]; first compound 158.11 µM) was 0.479. For the same compound, the relative viability ([5]; first compound 500 µM) was 0.0147, the relative viability ([6]; first compound 5 µM) was 0.683 and the relative viability ([6]; first compound 15.81 µM) was 0.617. For the same compound, the relative viability ([6]; first compound 50 µM) was 0.656, the relative viability ([6]; first compound 158.11 µM) was 0.636 and the relative viability ([6]; first compound 500 µM) was 0.404. For the same compound, the relative viability ([7]; first compound 5 µM) was 0.248, the relative viability ([7]; first compound 50 µM) was 0.266 and the relative viability ([7]; first compound 158.11 µM) was 0.205. It also gave a relative viability ([7]; first compound 500 µM) of 0.0326, a relative viability ([8]; first compound 5 µM) of 0.255 and a relative viability ([8]; first compound 15.81 µM) of 0.393. The relative viability ([8]; first compound 50 µM) was 0.453, the relative viability ([8]; first compound 158.11 µM) was 0.385 and the relative viability ([8]; first compound 500 µM) was 0.102. The relative viability ([9]; first compound 5 µM) was 0.368, the relative viability ([9]; first compound 15.81 µM) was 0.314 and the relative viability ([9]; first compound 50 µM) was 0.363. The relative viability ([9]; first compound 158.11 µM) was 0.399, the relative viability ([9]; first compound 500 µM) was 0.371 and the relative viability ([10]; first compound 5 µM) was 0.433. The relative viability ([10]; first compound 15.81 µM) was 0.286, the relative viability ([10]; first compound 50 µM) was 0.435 and the relative viability ([10]; first compound 158.11 µM) was 0.181. For the same compound, the relative viability ([10]; first compound 500 µM) was 0.0176, the relative viability ([11]; first compound 5 µM) was 0.505 and the relative viability ([11]; first compound 15.81 µM) was 0.492. It also gave a relative viability ([11]; first compound 50 µM) of 0.4, a relative viability ([11]; first compound 158.11 µM) of 0.383 and a relative viability ([11]; first compound 500 µM) of 0.343. It also gave a relative viability ([12]; first compound 5 µM) of 0.591, a relative viability ([12]; first compound 15.81 µM) of 0.504 and a relative viability ([12]; first compound 50 µM) of 0.572. For the same compound, the relative viability ([12]; first compound 158.11 µM) was 0.331, the relative viability ([12]; first compound 500 µM) was 0.0986 and the relative viability ([13]; first compound 5 µM) was 0.455. For the same compound, the relative viability ([13]; first compound 15.81 µM) was 0.427, the relative viability ([13]; first compound 50 µM) was 0.473 and the relative viability ([13]; first compound 158.11 µM) was 0.211. For the same compound, the relative viability ([13]; first compound 500 µM) was 0.0075, the relative viability ([14]; first compound 5 µM) was 0.39 and the relative viability ([14]; first compound 15.81 µM) was 0.4. It also gave a relative viability ([14]; first compound 50 µM) of 0.415, a relative viability ([14]; first compound 158.11 µM) of 0.359 and a relative viability ([14]; first compound 500 µM) of 0.116. It also gave a relative viability ([15]; first compound 5 µM) of 0.533, a relative viability ([15]; first compound 15.81 µM) of 0.428 and a relative viability ([15]; first compound 50 µM) of 0.49. The relative viability ([15]; first compound 158.11 µM) was 0.46, the relative viability ([15]; first compound 500 µM) was 0.264 and the relative viability ([16]; first compound 5 µM) was 0.583. For the same compound, the relative viability ([16]; first compound 15.81 µM) was 0.494, the relative viability ([16]; first compound 50 µM) was 0.535 and the relative viability ([16]; first compound 158.11 µM) was 0.554. The relative viability ([16]; first compound 500 µM) was 0.472, the relative viability ([17]; first compound 5 µM) was 0.549 and the relative viability ([17]; first compound 15.81 µM) was 0.483. For the same compound, the relative viability ([17]; first compound 50 µM) was 0.556, the relative viability ([17]; first compound 158.11 µM) was 0.556 and the relative viability ([17]; first compound 500 µM) was 0.133. The relative viability ([18]; first compound 5 µM) was 0.429, the relative viability ([18]; first compound 15.81 µM) was 0.382 and the relative viability ([18]; first compound 50 µM) was 0.596. It also gave a relative viability ([18]; first compound 158.11 µM) of 0.374, a relative viability ([18]; first compound 500 µM) of 0.0181 and a relative viability ([19]; first compound 5 µM) of 0.512. For the same compound, the relative viability ([19]; first compound 15.81 µM) was 0.462, the relative viability ([19]; first compound 50 µM) was 0.452 and the relative viability ([19]; first compound 158.11 µM) was 0.472. For the same compound, the relative viability ([19]; first compound 500 µM) was 0.43, the relative viability ([20]; first compound 5 µM) was 0.87 and the relative viability ([20]; first compound 15.81 µM) was 0.702. For the same compound, the relative viability ([20]; first compound 50 µM) was 0.733, the relative viability ([20]; first compound 158.11 µM) was 0.587 and the relative viability ([20]; first compound 500 µM) was 0.0127. The relative viability ([21]; first compound 5 µM) was 0.524, the relative viability ([21]; first compound 15.81 µM) was 0.397 and the relative viability ([21]; first compound 50 µM) was 0.705. The relative viability ([21]; first compound 158.11 µM) was 0.144, the relative viability ([21]; first compound 500 µM) was 0.171 and the relative viability ([22]; first compound 5 µM) was 0.623. For the same compound, the relative viability ([22]; first compound 15.81 µM) was 0.782, the relative viability ([22]; first compound 50 µM) was 0.619 and the relative viability ([22]; first compound 158.11 µM) was 0.645. It also gave a relative viability ([22]; first compound 500 µM) of 0.51, a relative viability ([23]; first compound 5 µM) of 0.36 and a relative viability ([23]; first compound 15.81 µM) of 0.428. It also gave a relative viability ([23]; first compound 50 µM) of 0.442, a relative viability ([23]; first compound 158.11 µM) of 0.355 and a relative viability ([23]; first compound 500 µM) of 0.367.
